From patent US11154551B2, “HDAC1,2 inhibitors and methods of using the same” (UNIVERSITY OF UTAH RESEARCH FOUNDATION, priority 2014, dated 2021)
Entries after “also recorded” stand apart in the source; their conditions may differ.

Columns and labels:
Karpas-422 cells [1] = test: propidium-iodide / BrdU-PI cell cycle analysis; type: cell-based, human; conditions: for progression through the cell cycle: 24 h; for progression through the cell cycle / cell cycle / sub-G1 (dead cells): 2 μM ACY-957, 0.5 μM DZNEP, 0.5 μM GSK126
Procedure: (§1) (B): Quantitation of the cell cycle data in (A), compiled from three independent analyses. The graphs plotted the average percentage of cells in each phase of the cell cycle. […] (C): FACS analysis following BrdU-PI staining of Karpas-422 and SUDHL4 cells was performed following a 48 h or 72 h treatment with ACY-957.
Cell cycle analysis of propidium-iodide stained cells was performed with fixed cells. […] (C): FACS analysis following BrdU-PI staining of Karpas-422 and SUDHL4 cells was performed following a treatment with 2 μM ACY-957, 50 nM doxorubicin or both for 48 h.
(§2) (B): Quantitation of the cell cycle analysis performed in (A). Data from three independent cell cycle analyses were compiled and average percentage cells with standard errors were shown in this panel.
(§3) Propidium-iodide Cell Cycle Analysis.
(§4) Since these DLBCL cells expressed a hyperactive form of EZH2, pharmacological inhibition of EZH2 activity was considered a therapeutic strategy. […] GSK126 was a S-adenosyl-methionine-competitive inhibitor of EZH2 methyltransferase activity, and DZNep was a S-adenosylhomocysteine hydrolase inhibitor that disrupted the components of the PRC2 complex, thereby causing reduced chromatin-associated EZH2 levels.
To test this possibility, cell cycle analysis following treatment of Karpas-422 with ACY-957, doxorubicin, or ACY-957 in combination with doxorubicin was performed.

SUDHL4 cells = test: propidium-iodide / BrdU-PI cell cycle analysis; type: cell-based, human; conditions: for progression through the cell cycle: 24 h; for progression through the cell cycle / cell cycle / G1 arrest and sub-G1: 2 μM ACY-957, 0.5 μM DZNEP, 0.5 μM GSK126; for cell cycle / G1 arrest and sub-G1: 72 h
Procedure: as §1, §2, §3, §4

[2] = tested on: Karpas-422 and SUDHL4 cells; test: Western blot of chromatin extracts for H3K27ac and H3K27me3; type: cell-based, human; conditions: 48 h, chromatin extracts
Procedure: Western blot analysis was done with anti-H3K27ac, H3K27me3 or EZH2 and histone H3 served as a loading control.
Following DMSO or ACY-957 treatment, cells were exposed to a 5Gy dose of ionizing radiation and allowed to recover for 30 minutes prior to chromatin extraction. Western blots were performed with anti-H3K27ac or anti-H3K27me3 with histone H3 serving as a loading control. (B-E): Karpas-422, SUDHL4, WSU-DLCL2 and HeLa cells were laser micro-irradiated and allowed to recover for 15 minutes before fixation and immunofluorescence staining with anti-γH2AX and anti-H3K27me3. Subsequently, the percentage of cells with H3K27me3 lines that co-localized with γH2AX were counted. Merge is the overlay of γH2AX and H3K27me3 pictures. (F-I): At least 100 cells with γH2AX lines were counted in each experiment. The quantitation shown was the average calculated from independent experiments+/−standard error. Quantitation from five, seven, five and six independent experiments performed in Karpas-422, SUDHL4, WSU-DLCL2 and HeLa cells, respectively, was used in the graph shown in this figure. (J): Karpas-422 cells were micro-irradiated with a laser and allowed to recover for 15 minutes before fixation and immunofluorescence staining was performed with anti-γH2AX and anti-H3K27ac.
Protein Preparation and Western Blot Analysis.
The histone H3K27 residue was subjected to reversible acetylation and methylation. […] We also treated cells with the second EZH2 inhibitor, GSK126 alone, or combined with ACY-957 (ACY-957+GSK126). […] Cells were treated for 48 h prior to preparing chromatin extracts for Western analysis using antibodies recognizing H3K27ac or H3K27me3.
We first examined whether inhibiting HDAC1,2 activity induced any change in global H3K27ac or H3K27me3 on chromatin following DNA damage and during DNA repair. SUDHL4 or Karpas-422 cells with or without exposure to ionizing radiation (IR) were initially treated with DMSO or ACY-957 for 48 hr. Chromatin extracts were prepared from these cells following a 30 min recovery period (the repair phase) and changes in histone modifications were examined by Western blotting.

[3] = tested on: SUDHL4 and Karpas-422 cells; test: γH2AX foci formation by immunofluorescence; type: cell-based, human; conditions: 48 h; 2 μM ACY-957, 0.5 μM DZNEP, 0.5 μM GSK126
Procedure: (§5) The percentage of cells with 6 or greater γH2AX foci were counted in three independent experiments and at least 100 cells were counted in each experiment. […] Histones were purified using trichloroacetic acid extraction protocol (see Example 1). Western blot analysis was done with anti-γH2AX and histone H2AX served as the loading control. […] Following DMSO or ACY957 treatment, cells were exposed to a 5Gy dose of ionizing radiation and allowed to recover for 30 minutes prior to chromatin extraction. Western blot analysis was done with anti-γH2AX where total histone H2AX served as a loading control. (D): Karpas-422 cells were micro-irradiated with laser and allowed to recover for 15 minutes before fixation and immunofluorescence staining with anti-γH2AX, anti-HDAC1 and anti-HDAC2 antibodies was done.
Immunofluorescence. Cells were fixed in either 10% formalin or methanol-acetone (1:1) for 10 min at −20*C. The cells were then permeabilized with 0.5% Triton-X-100 in PBS for 5 min at room temperature (RT), blocked in 10% normal goat serum (Sigma) for 30 min and stained with primary antibody for 1 h at RT. Cells were incubated with secondary antibody (anti-mouse or anti-rabbit IgG, Alexa Fluor 488/546) at a 1:600 dilution for 45 min at RT, and counterstained with Hoechst 33342 (Sigma) at 1:1000 dilution to visualize the nuclei. Images were captured using Zeiss Axioskop mot plus microscope with a 40× lens and analyzed using the AxioVision software.

[4] = tested on: SUDHL4 and Karpas-422 cells; test: Western blot of γH2AX on chromatin, with or without ionizing radiation; type: cell-based, human; conditions: 48 hr, Western
Procedure: as §5

Hdac1,2 = test: in vitro enzyme assays, IC50 determination (FIG. 17A); type: biochemical
Procedure: (§6) (A). For IC50 determination, recombinant HDAC enzymes were treated with HDAC1,2 or HDAC3 inhibitors in in vitro HDAC assays. (B). Western blots for H3K23ac using extracts from Pre-B-ALL SupB15 cells treated with increasing dose of HDAC1,2 inhibitor (ACY1035). (C). Hdac1^FI/FI, 2^FI/FI cells were infected with Ad-Cre virus to delete HDAC1 and HDAC2 (HDAC1,2 null) or uninfected (WT). (D). Hdac3^FI/FI cells were either uninfected (WT) or infected with Ad-Cre virus to delete Hdac3. HDAC3-null cells were treated with DMSO or the HDAC1,2 selective inhibitor.
We have determined 2 μM (FIG. 17B) as the minimum dose for the ACY compounds, respectively, that when added to cells increased H3K23ac (a mark targeted by Hdac1,2 but not Hdac3).

[5] = tested on: SupB15 (Ph+PreB-ALL) cells; test: γH2AX immunofluorescence; type: cell-based, human; conditions: 2 μM, 48 hours
Procedure: SupB15 cells were treated with 2 μM ACY1035, ACY1071, ACY957, or solvent (DMSO) for 48 hours. (A) Immunofluorescence with γH2AX was performed on treated SupB15 cells. The number of γH2AX foci was counted in around 100 cells for each treatment and classified into cells with no foci, 1-5, 6-10, and greater than 10 foci. (B) SupB15 cells treated with DMSO or ACY1035 for 48 hours were tested via neutral comet assay to measure the amount of double-strand breaks (DSBs), indicated by the tail.
BCR-ABL promotes DNA repair to prevent DNA damage accumulation in Philadelphia chromosome-positive (Ph+) leukemia cells. To examine the effect of various HDAC1,2-selective inhibitors on DNA repair and DNA damage response in Pre-B-ALL cells that express BCR-ABL, SupB15 (Ph+PreB-ALL) cells were treated with 2 μM ACY1035 or 2 μM ACY1071 or 2 μM ACY957 for 48 hours.

[6] = tested on: Hdac1,2 or Hdac3 knockout cell lines; test: Western blot of H4K5ac in conditional Hdac1,2 or Hdac3 knockout cells; type: cell-based, mouse
Procedure: as §6, with “For” for “(A). For”, “Hdac3.” for “Hdac3. HDAC3-null cells were treated with DMSO or the HDAC1,2 selective inhibitor.”

Karpas-422 cells [7] = conditions: publically available RNA seq data set of GSK126 treated cells; cited from earlier work
[8] = tested on: Karpas-422 and SUDHL4 cells; test: Western blot of histone acetylation marks in whole cell lysates; conditions: 2 μM, 24 hours, vs DMSO
Procedure: Compounds were diluted in DMSO to 50 fold the final concentration and a ten point three fold dilution series was made. The compounds were diluted in assay buffer (50 mM HEPES, pH 7.4, 100 mM KCl, 0.001% Tween-20, 0.05% BSA, 20 μM tris(2-carboxyethyl)phosphine) to 6 fold their final concentration. The HDAC enzymes (purchased from BPS Biosciences) were diluted to 1.5 fold their final concentration in assay buffer. The tripeptide substrate (synthesized in house) and trypsin at 0.05 μM final concentration were diluted in assay buffer at 6 fold their final concentration. Five μl compounds and 20 μl of enzyme were added to wells of a black, opaque 384 well plate in duplicate. Enzyme and compound were incubated together at room temperature for 10 minutes. Five μl of substrate was added to each well, the plate was shaken for 60 seconds and placed into a Victor 2 microtiter plate reader. The development of fluorescence was monitored for 60 min and the linear rate of the reaction was calculated. The IC50 was determined using Graph Pad Prism by a four parameter curve fit.

Row | SMILES | progression through the cell cycle (Karpas-422 cells [1]) | cell cycle / sub-G1 (dead cells) (Karpas-422 cells [1]; 48 h) | cell cycle / sub-G1 (dead cells) (Karpas-422 cells [1]; 72 h) | progression through the cell cycle (SUDHL4 cells) | cell cycle / G1 arrest and sub-G1 (SUDHL4 cells) | global H3K27me3 levels [2] | cells with γH2AX foci [3] | other results
1 | Nc1nccc2c1ncn2C1C=C(CO)C(O)C1O (stereo not shown) [DZNep, reference compound] | did not affect their progression through the cell cycle | modest increase in the number of dead Karpas-422 cells | larger increase in the number of dead Karpas-422 cells | did not affect their progression through the cell cycle | modest increase in dead/sub-G1 SUDHL4 cells | without reducing global H3K27me3 levels | significant increase in the number of cells with greater than six γH2AX foci | chromatin associated γH2AX [4]: greater increase in γH2AX levels on chromatin compared to GSK126
2 | Nc1ccc(-c2ccncc2)cc1NC(=O)c1ccc2c(c1)cc(C1CC1)n2CCN1CCOCC1 [ACY-1071, N-(2-amino-5-(pyridin-4-yl)phenyl)-2-cyclopropyl-1-(2-morpholinoethyl)-1H-indole-5-carboxamide] | – | – | – | – | – | – | – | inhibition of Hdac1,2 activities compared to Hdac3 (IC50 values) (Hdac1,2): very selectively; DNA damage, quantitation of γH2AX foci [5]: statistically significant increase in DNA damage
3 | Nc1ccccc1NC(=O)c1ccc(CNC(=O)OCc2cccnc2)cc1 [MS275, reference compound] | – | – | – | – | – | – | – | H4K5ac compared with deletion of Hdac1,2 [6]: greater increase in H4K5ac than the deletion of just Hdac1,2
4 | CC[C@H](C)n1cc(C)c2c(C(=O)NCc3c(C)cc(C)[nH]c3=O)cc(-c3ccc(N4CCNCC4)nc3)cc21 [GSK126, reference compound] | did not affect their progression through the cell cycle | did not cause any change in the progression | did not result in any defect in the cell cycle progression and/or survival | did not affect their progression through the cell cycle | did not result in any defect in the cell cycle progression and/or survival | decrease in global H3K27me3 levels; also recorded: significant decrease in H3K27me3 | slight increase in γH2AX foci | incubation required to decrease the viability (Karpas-422 cells [1]): 7 days; cell cycle / G1 arrest (SUDHL4 cells; 48 h, 2 μM ACY-957, 0.5 μM GSK126): did not cause any change in the progression; BLIMP1 expression increase (Karpas-422 cells [7]): 2.4 fold
5 | O=C(CCCCCCC(=O)Nc1ccccc1)NO [SAHA, Vorinostat, reference compound] | – | – | – | – | – | – | – | H3K23ac levels [8]: increase in H3K23ac
